Measurements as given in ChEMBL document CHEMBL1157736, “2,3-Diaminopyrazines as Rho kinase inhibitors” (Bioorg Med Chem Lett, 2010).
pIC50: −log10 of the molar value.

How the values were obtained:
[1] = molecular target: Rho-associated protein kinase 1 (Homo sapiens, UniProt Q13464); assay: Inhibition of human recombinant ROCK1
[2] = molecular target: Rho-associated protein kinase 2 (Homo sapiens, UniProt O75116); assay: Inhibition of human recombinant ROCK2
Cytochrome P450 2C8 = molecular target: T1, Cytochrome P450 2C8 (Homo sapiens, UniProt P10632); assay: Inhibition of CYP2C8; type: ADME
T1 sequence (P10632 whole entry): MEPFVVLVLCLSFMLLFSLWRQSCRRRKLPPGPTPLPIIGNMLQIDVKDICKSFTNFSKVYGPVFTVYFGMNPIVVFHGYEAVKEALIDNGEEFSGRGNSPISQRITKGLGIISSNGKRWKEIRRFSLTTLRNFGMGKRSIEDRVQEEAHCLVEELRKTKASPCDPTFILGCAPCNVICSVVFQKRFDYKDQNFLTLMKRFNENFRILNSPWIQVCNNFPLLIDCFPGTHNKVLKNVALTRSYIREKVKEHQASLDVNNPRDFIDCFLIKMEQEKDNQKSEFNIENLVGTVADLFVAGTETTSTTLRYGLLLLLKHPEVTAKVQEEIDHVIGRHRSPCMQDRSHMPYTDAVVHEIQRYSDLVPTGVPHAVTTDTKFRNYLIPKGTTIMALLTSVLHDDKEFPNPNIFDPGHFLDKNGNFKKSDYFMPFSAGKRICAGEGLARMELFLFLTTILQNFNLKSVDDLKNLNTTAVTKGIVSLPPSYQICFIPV

Cytochrome P450 2B6 = molecular target: T2, Cytochrome P450 2B6 (Homo sapiens, UniProt P20813); assay: Inhibition of CYP2B6; type: ADME
T2 sequence (P20813 whole entry): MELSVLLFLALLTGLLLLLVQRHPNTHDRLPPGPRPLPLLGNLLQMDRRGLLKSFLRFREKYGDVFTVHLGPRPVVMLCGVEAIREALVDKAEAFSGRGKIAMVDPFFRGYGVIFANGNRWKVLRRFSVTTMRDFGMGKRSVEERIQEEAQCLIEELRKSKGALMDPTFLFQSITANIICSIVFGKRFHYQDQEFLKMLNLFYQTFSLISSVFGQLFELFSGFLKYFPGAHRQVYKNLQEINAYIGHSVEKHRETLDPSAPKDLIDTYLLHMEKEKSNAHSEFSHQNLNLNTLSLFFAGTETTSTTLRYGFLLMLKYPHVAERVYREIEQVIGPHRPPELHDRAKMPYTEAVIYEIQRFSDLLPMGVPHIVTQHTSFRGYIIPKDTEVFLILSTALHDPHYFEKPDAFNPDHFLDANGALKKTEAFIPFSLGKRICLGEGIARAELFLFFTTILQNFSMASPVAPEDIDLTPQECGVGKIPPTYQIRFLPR

Cytochrome P450 1A2 = molecular target: T3, Cytochrome P450 1A2 (Homo sapiens, UniProt P05177); assay: Inhibition of CYP1A2; type: ADME
T3 sequence (P05177 whole entry): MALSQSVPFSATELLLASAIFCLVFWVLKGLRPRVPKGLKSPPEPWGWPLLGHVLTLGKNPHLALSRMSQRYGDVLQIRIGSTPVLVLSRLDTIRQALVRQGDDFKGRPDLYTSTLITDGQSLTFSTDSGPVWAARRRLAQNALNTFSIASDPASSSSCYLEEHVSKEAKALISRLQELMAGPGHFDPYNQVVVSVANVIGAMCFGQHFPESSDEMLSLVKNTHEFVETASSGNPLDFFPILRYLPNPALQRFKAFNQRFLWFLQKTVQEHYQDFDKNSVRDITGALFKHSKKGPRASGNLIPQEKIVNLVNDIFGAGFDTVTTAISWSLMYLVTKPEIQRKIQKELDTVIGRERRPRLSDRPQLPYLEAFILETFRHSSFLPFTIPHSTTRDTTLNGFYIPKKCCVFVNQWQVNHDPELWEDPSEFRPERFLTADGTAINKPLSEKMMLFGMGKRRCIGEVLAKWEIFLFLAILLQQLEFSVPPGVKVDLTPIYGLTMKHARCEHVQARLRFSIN

Cytochrome P450 2C19 = Cytochrome P450 2C19 (Homo sapiens, UniProt P33261); assay: Inhibition of CYP2C19; type: ADME
Cytochrome P450 2C19, sequence (P33261 whole entry): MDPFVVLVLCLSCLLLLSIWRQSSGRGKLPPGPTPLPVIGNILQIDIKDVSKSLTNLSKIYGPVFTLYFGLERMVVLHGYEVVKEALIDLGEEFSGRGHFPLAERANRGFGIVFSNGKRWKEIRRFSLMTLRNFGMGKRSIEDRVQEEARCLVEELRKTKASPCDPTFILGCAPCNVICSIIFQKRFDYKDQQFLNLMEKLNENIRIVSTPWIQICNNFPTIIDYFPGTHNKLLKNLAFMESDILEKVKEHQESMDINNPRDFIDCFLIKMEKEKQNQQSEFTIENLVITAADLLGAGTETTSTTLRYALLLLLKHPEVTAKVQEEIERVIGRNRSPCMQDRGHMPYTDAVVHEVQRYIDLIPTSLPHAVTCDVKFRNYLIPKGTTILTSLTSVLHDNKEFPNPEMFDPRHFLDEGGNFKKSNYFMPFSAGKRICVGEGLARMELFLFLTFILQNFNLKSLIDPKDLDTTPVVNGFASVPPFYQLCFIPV

Cytochrome P450 2D6 = Cytochrome P450 2D6 (Homo sapiens, UniProt P10635); assay: Inhibition of CYP2D6; type: ADME
Cytochrome P450 2D6, sequence (P10635 whole entry): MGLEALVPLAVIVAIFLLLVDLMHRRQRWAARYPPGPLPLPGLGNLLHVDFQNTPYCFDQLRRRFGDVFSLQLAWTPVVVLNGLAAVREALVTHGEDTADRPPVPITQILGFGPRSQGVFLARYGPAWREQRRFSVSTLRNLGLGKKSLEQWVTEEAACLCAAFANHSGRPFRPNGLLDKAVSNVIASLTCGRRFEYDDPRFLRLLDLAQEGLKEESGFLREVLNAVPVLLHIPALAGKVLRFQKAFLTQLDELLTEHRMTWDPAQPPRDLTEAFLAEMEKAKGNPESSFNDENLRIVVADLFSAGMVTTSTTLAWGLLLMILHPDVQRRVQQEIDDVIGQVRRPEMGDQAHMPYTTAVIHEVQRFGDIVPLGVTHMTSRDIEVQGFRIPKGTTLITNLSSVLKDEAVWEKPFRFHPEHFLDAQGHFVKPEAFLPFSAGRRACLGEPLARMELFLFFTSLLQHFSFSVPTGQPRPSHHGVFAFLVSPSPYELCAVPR

[3] = Metabolic stability in human liver microsomes after 1 hr; type: ADME, Microsome; conditions: read-out: Stability
Cytochrome P450 3A4 = Cytochrome P450 3A4 (Homo sapiens, UniProt P08684); assay: Inhibition of CYP3A4; type: ADME
Cytochrome P450 3A4, sequence (P08684 whole entry): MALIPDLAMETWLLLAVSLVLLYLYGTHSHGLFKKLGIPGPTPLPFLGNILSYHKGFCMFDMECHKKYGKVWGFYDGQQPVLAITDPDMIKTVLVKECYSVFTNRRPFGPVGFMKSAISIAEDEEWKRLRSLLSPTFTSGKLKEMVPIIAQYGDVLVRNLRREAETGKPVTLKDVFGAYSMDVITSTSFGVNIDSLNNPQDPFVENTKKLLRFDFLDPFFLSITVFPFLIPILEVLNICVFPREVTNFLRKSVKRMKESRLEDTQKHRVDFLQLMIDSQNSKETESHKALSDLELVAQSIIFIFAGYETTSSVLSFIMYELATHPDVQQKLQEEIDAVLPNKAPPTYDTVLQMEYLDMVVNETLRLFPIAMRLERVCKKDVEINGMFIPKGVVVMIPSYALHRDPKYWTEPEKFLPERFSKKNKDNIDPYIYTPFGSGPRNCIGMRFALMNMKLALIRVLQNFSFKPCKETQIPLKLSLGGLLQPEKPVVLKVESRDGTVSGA

Rho-associated protein kinase 1, sequence (Q13464 whole entry): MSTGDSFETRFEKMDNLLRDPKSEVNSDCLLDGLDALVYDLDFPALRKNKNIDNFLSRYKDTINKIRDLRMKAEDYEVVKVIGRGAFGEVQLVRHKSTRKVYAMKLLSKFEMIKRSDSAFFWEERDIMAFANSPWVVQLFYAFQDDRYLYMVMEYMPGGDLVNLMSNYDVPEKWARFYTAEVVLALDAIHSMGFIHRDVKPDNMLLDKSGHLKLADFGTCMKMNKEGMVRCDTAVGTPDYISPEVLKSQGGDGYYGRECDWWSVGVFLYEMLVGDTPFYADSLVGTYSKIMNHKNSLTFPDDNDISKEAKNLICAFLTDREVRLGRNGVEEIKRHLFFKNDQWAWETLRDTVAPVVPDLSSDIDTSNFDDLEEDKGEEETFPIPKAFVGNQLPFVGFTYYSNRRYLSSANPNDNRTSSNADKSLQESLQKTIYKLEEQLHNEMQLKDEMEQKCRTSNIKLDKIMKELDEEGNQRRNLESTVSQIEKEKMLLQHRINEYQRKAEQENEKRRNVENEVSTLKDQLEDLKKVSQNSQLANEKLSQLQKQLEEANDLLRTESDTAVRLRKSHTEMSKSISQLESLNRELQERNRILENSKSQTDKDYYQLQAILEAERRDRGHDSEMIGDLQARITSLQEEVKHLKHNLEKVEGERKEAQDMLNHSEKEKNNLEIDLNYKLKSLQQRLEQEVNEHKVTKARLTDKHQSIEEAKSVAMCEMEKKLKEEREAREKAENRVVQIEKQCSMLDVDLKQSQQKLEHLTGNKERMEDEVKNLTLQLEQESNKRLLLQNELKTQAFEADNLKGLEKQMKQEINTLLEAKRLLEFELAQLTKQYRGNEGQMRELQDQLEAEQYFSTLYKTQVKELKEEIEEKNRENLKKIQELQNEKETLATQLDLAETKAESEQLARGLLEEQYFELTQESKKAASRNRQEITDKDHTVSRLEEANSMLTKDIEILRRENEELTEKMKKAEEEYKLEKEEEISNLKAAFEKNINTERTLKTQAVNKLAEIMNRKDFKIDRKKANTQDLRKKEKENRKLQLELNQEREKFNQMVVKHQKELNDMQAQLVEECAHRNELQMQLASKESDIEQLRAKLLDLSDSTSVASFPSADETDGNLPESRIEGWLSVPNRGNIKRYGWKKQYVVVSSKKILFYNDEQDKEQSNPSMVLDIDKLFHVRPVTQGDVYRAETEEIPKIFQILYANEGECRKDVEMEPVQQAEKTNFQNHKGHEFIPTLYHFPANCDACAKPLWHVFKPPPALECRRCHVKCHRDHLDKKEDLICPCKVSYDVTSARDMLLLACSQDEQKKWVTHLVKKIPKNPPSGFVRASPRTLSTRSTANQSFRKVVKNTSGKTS
Rho-associated protein kinase 2, sequence (O75116 whole entry): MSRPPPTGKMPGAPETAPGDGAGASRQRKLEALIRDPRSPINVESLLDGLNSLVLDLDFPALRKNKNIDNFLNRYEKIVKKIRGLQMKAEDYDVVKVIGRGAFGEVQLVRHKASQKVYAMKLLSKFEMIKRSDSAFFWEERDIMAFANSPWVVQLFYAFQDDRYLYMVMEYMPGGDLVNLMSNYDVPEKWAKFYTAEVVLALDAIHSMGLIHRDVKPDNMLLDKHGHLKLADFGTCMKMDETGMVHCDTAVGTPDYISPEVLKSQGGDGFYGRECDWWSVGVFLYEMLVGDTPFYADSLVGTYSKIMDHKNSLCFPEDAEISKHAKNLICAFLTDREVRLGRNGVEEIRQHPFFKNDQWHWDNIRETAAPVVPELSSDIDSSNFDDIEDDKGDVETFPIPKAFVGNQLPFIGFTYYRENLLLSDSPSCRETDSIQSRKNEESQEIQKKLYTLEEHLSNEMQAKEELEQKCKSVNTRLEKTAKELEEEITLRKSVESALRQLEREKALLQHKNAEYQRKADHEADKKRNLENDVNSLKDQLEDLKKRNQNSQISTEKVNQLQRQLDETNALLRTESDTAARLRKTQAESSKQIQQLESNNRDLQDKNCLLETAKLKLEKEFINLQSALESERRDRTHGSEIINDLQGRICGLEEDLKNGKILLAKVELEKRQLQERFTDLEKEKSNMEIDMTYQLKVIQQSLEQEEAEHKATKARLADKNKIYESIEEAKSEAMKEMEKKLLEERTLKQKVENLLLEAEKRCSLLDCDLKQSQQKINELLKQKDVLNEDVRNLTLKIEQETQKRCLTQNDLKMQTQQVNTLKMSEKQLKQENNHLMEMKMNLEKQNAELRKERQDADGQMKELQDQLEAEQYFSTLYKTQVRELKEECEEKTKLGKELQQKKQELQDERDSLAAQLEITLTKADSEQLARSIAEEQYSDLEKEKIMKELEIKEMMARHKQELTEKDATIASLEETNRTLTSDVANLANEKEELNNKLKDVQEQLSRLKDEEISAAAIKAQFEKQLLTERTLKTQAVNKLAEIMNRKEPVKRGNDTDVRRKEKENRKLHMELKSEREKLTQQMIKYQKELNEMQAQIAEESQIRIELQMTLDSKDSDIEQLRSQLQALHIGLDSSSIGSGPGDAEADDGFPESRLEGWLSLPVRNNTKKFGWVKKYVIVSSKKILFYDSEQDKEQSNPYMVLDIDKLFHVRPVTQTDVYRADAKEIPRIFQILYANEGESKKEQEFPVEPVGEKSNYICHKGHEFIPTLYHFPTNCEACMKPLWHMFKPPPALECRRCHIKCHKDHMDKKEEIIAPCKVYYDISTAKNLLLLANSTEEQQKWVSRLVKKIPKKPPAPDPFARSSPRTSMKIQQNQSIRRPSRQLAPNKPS

| pIC50 [1] | pIC50 [2] | Compound | other results |
| --- | --- | --- | --- |
| 5.59 | 5.17 | CCN(CC)c1ncc(-c2ccncc2)nc1N1CCCN(C)CC1 | – |
| 4.38 | 5.52 | CN1CCCN(c2nc(-c3ccncc3)cnc2NCCO)CC1 | – |
| < 5.00 | < 5.00 | CN1CCCN(c2nc(-c3ccc4cn[nH]c4c3)cnc2N)CC1 | – |
| 5.16 | 5.62 | CNc1ncc(-c2ccncc2)nc1N1CCCN(C)CC1 | – |
| 5.34 | 5.60 | Nc1ncc(-c2ccncc2)nc1N1CCN(CCO)CC1 | – |
| < 4.00 | < 4.00 | Cc1cc(-c2cnc(N)c(N3CCCN(C)CC3)n2)ccn1 | – |
| 5.00 | 4.28 | COCCNc1ncc(-c2ccncc2)nc1N1CCCN(C)CC1 | – |
| 5.64 | 6.02 | CN1CCCN(c2nc(-c3ccc4[nH]ncc4c3)cnc2N)CC1 | – |
| 5.74 | 6.60 | CNC1CCN(c2nc(-c3ccncc3)cnc2N2CCCC2)CC1 | – |
| 4.60 | 4.28 | CN1CCCN(c2nc(-c3ccnc(N)c3)cnc2N)CC1 | – |
| 5.82 | 6.28 | CN1CCCN(c2nc(-c3ccnc4[nH]ccc34)cnc2N)CC1 | – |
| 6.21 | 7.21 | c1cc(-c2cnc(N3CCCC3)c(N3CCNCC3)n2)ccn1 | – |
| 4.17 | 5.20 | CN1CCCN(c2nc(-c3ccncc3)cnc2N2CCOCC2)CC1 | – |
| 4.32 | 4.35 | COCCN(C)c1ncc(-c2ccncc2)nc1N1CCCN(C)CC1 | – |
| 5.22 | 6.48 | CN1CCCN(c2nc(-c3ccncc3)cnc2N2CCCC2)CC1 | – |
| 6.52 | 7.05 | NC1CCN(c2nc(-c3ccnc4[nH]ccc34)cnc2N2CCCC2)CC1 | – |
| 5.02 | 5.60 | CN1CCCN(c2nc(-c3cccc4[nH]ncc34)cnc2N)CC1 | – |
| 4.43 | 5.54 | CN1CCCN(c2nc(-c3cc[nH]n3)cnc2N)CC1 | – |
| 5.19 | 5.77 | CN1CCCN(c2nc(-c3ccncc3)cnc2N(C)C)CC1 | – |
| 3.92 | 4.24 | Cc1cnccc1-c1cnc(N)c(N2CCCN(C)CC2)n1 | – |
| 6.82 | 7.31 | CNCC1CCN(c2nc(-c3ccncc3)cnc2N2CCCC2)CC1 | – |
| 6.54 | 7.21 | NC1CCN(c2nc(-c3ccncc3)cnc2N2CCCC2)CC1 | – |
| 5.34 | 5.60 | CN1CCCN(c2nc(-c3ccncc3)cnc2N)CC1 | – |
| 4.74 | 6.25 | CN1CCCN(c2nc(-c3ccncc3)cnc2N2CCCCC2)CC1 | – |
| 5.85 | 6.52 | CN(C)c1ncc(-c2ccncc2)nc1N1CCN(CCO)CC1 | – |

| Compound | pIC50 [1] | pIC50 [2] | other results |
| --- | --- | --- | --- |
| NCC1CCN(c2nc(-c3ccncc3)cnc2N2CCCC2)CC1 | 6.89 | 7.55 | – |
| c1cc(-c2cnc(N3CCCC3)c(N3CCCNCC3)n2)ccn1 | 6.49 | 7.41 | – |
| c1cc(-c2cnc(N3CCCC3)c(N3CCCNCC3)n2)c2cc[nH]c2n1 | 6.77 | – | – |
| OCCN1CCN(c2nc(-c3ccncc3)cnc2N2CCCC2)CC1 | 6.52 | 7.11 | Activity (Cytochrome P450 2C8): > 2 µM; Activity (Cytochrome P450 2B6): > 2 µM; Activity (Cytochrome P450 1A2): > 2 µM; Activity (Cytochrome P450 2C19): > 2 µM; Activity (Cytochrome P450 2D6): > 2 µM; remaining at 1 h [3]: 100%; Activity (Cytochrome P450 3A4): > 2 µM |
| c1cc(-c2cnc(N3CCCC3)c(N3CCNCC3)n2)c2cc[nH]c2n1 | 7.47 | 7.77 | – |
